Measured values published in patent US12006330B2, “Substituted macrocyclic compounds and related methods of treatment” (Alkermes, Inc., priority 2020, dated 2024).

Experiments:
[1] = target: T1, human orexin-2 receptor (OX2R) (Homo sapiens, UniProt O43614); experiment: Human OX2R IP1 assay; format: cell-based; conditions: T-Rex CHO cells stably overexpressing human OX2R; IP1 accumulation; 1 hr at 37 degrees C; mean EC50
T1 construct: expressed in transfected cells
T1 sequence (O43614 1-444): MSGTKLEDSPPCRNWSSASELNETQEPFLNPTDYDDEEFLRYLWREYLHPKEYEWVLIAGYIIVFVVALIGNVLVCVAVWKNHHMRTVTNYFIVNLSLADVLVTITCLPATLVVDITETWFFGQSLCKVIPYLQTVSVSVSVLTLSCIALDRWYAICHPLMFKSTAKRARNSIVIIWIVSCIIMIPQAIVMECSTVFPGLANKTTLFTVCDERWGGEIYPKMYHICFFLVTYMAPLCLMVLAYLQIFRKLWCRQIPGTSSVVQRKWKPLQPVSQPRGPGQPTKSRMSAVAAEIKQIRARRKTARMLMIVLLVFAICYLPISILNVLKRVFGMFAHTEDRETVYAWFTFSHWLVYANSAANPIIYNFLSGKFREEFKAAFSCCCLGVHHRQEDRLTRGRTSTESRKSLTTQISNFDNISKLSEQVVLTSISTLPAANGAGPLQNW
Procedure: T-Rex CHO cells stably overexpressing the human orexin-2 receptor (OX2R) were induced overnight with 1 μg/mL of doxycycline in a T225 flask. 24 hours post induction, cells were lifted with accutase and plated into a 384-well proxy plate at 30,000 cells/well. Cells were then treated with different test compounds in 1× stimulation buffer containing 10 mM Hepes, 1 mM CaCl2), 0.5 mM MgCl2, 4.2 mM KCl, 146 mM NaCl, 5.5 mM glucose, and 50 mM LiCl, pH 7.4, for 1 hr at 37 degrees C. Following incubation, the reaction was terminated by the addition of detection mix, which is composed of IP1-d2 and anti-IP1-cryptate diluted in lysis buffer as well as 1× stimulation buffer. The plates were allowed to incubate for 1 hour at room temperature and were then read in the EnVision® multimode plate reader, measuring inositol phosphate levels.
Cisbio IP1 is a cell-based functional assay quantifying the accumulation of inositol monophosphate (IP), a metabolite released as a result of orexin 2 receptor activation through the phospholipase C-Gq signaling pathway. This is a competitive immunoassay in which the IP1 produced by the cells upon receptor activation competes with the IP1 analog coupled to the d2 fluorophore (acceptor) for binding to an anti-IP1 monoclonal antibody labeled with Eu cryptate (donor). The measured HTRF-FRET based signal is inversely proportional to the IP1 concentration produced.
The EC50 values reported in Table 2 were obtained according to the human OX2R IP1 assay described above. Data are the mean EC50 values S.E.M. Reference Compound A is methyl (2R,3S)-3-((methylsulfonyl)amino)-2-(((cis-4-phenylcyclohexyl)oxy)methyl)-piperidine-1-carboxylate (Example 5 of PCT publication No. WO2017/135306). Reference Compound B is N-((2S,3S)-1-(2-hydroxy-2-methylpropanoyl)-2-((2,3′,5′-trifluorobiphenyl-3-yl)methyl)pyrrolidin-3-yl)methanesulfonamide (Example 483 of PCT publication No. WO2019/027058).

MDR1 = experiment: MDCK-MDR1 permeability assay; format: in vitro ADME; conditions: dog, MDCK-MDR1, MDCK-MDR1 cells; for efflux ratio at 2 h, 3 μM: Papp B→A divided by Papp A→B, read-out: Efflux ratio (ER); for Papp A→B at 2 h, 3 μM: test compound 3 μM, 2 hours at 37 degrees C, apical to basolateral
Procedure: The bidirectional permeability (Apical to Basal and Basal to Apical directions) of test compounds in MDCK-MIDR1 cells were evaluated using MDCK-MIDR1 cells seeded in Solvo PreadyPort™ MDCK 96-well plate. Once the plate was received from ReadyCell (Barcelona, Spain), it was treated as per PreadyPort™ user's manual.
For the Apical to Basolateral (A→B) permeability, 80 μL of test compound (3 μM) co-dosed with LY (Lucifer Yellow) (100 μM) in HBSS (Hank's Balanced Salt Solution) assay buffer was added to the donor side (A) while 250 μL of HBSS buffer was added to the receiver side (B). For the Basolateral to Apical (B→A) permeability, 255 μL of test compound (3 μM) in HBSS assay buffer was added to the donor side (B) while 75 μL of HBSS buffer containing LY (100 μM) was added to the receiver side (A).
The plate was placed in an incubator set at 37 degrees C. After 10 minutes of pre-warming, 5 μL aliquot was taken from donor compartment and set aside as the dosing solution. The MDCK-MDR1 incubation plate was placed back into the incubator for 2 hours of incubation at 37 degrees C. After 2 hours of incubation, 25 μL and 5 μL aliquots were removed from the receiver and donor sides, respectively. To the 5 μL aliquots taken from the donor sides (before and after a 2-hour incubation) were diluted with 20 μL of the HBSS buffer. All samples were mixed with 150 μL with acetonitrile containing internal standard (IS) and 200 μL water, and analyzed by LC-MS/MS.
The apparent permeability (Papp) was calculated using the following formula: Papp=dQ/dt×1/A×C0 where: • dQ/dt: amount of translocated material over incubation time (nmol/s) • A: area of insert (0.14 cm^2 for PreadyPort™ MDR1-96) • C0: initial concentration of product applied in apical (A→B) or basal (B→A) compartment (nmol/mL)
The efflux ratio (ER) was measured by dividing the Papp (basolateral to apical direction) by Papp (apical to basolateral direction). It is a general measure of the involvement of active processes. An ER>2 is considered positive for active transport.
Percent recovery was measured using the following equation:
[formula] where: • VR: Volume of the receiver compartment (mL) • VD: Volume of the donor compartment (mL) • CN: Concentration of dosing solution (μM) collected after 10 minutes of incubation • CR^final: Receiver concentration at the end of the incubation (μM) • CD^final: Donor concentration at the end of the incubation (μM)
The data reported in Table 3 were obtained according to the MDCK-MDR1 permeability assay described above.

[2] = Hepatocytes stability assay (human hepatocytes); format: in vitro ADME; conditions: both sexes, human, cryopreserved hepatocytes, cryopreserved human hepatocytes (pool of 50 mixed gender); 1 μM test compound; 1×10^6 cell/mL; 37 degrees C; read-out: CLint (μL/min/million cells)
Procedure: (§1) In vitro metabolic stability was assessed using cryopreserved hepatocytes from male Sprague Dawley rats and a pool of 50 mixed gender humans (BioIVT, Baltimore, MD). The incubation mixtures were prepared by mixing 250 μL of pre-warmed KHB (Krebs-Henseleit buffer) containing 2×10^6 cell/mL of hepatocytes with 250 μL of pre-warmed KHB buffer containing 2 μM of test compounds in a 48-well plate, giving a final concentration of 1 μM test compound (0.1% DMSO) and 1×10^6 cell/mL of hepatocytes. The reaction mixture was incubated at 37 degrees C. A 50 μL aliquot of incubation mixture was taken at time points (0, 15, 30, 60, 120 and 240 minutes) and transferred into a 96-well plate containing 300 μL ice-cold acetonitrile (containing 30 ng/mL of labetalol and 10 ng/mL of Naltrexone-d3 as internal standards) and immediately placed in ice to terminate the reaction. Samples were centrifuged, and supernatants were transferred into 96-well plates for liquid chromatography with tandem mass spectrometry (LC-MS/MS) analysis to monitor the depletion of the test compound.
(§2) Data was calculated as percent remaining by assuming zero-minute time point peak area ratio (analyte/IS) as 100% and dividing remaining time point peak area ratios by zero-minute time point peak area ratio. Data were fitted to a first-order decay model to determine half-life. From a plot of log (ln) peak area against time, the slope of the line was determined. Subsequently, half-life (T1/2) and intrinsic clearance (CLint) were calculated using the equations below: Elimination rate constant (k)=(−slope) Half-life (T1/2) min=0.693/k Intrinsic Clearance (CLint) (mL/min/million cells)=(V×0.693)/T1/2 V=incubation volume mL/number of cells The in vitro T1/2 was converted to in vitro intrinsic clearance (CLint,hep) in units of mL/min/kg using the formula shown below:
(§3) [formula] The in vitro intrinsic clearance (CLint,hep) was scaled to in vivo hepatic clearance (CL,hep) using the following equation which was adapted from a well-stirred model.
(§4) [formula] where Q is the liver blood flow and fu is the fraction unbound (assumed to be unity in this case). All parameters used in the calculation are shown below (Table 4).
(§5) The extraction ratio (ER) was calculated by dividing the hepatic clearance of a compound to the liver blood flow. The data reported in Table 5 were obtained according to the human hepatocytes stability assay described above.

human hepatocytes = experiment: Hepatocytes stability assay (human hepatocytes); format: in vitro ADME; conditions: human hepatocytes; scaled hepatic clearance divided by liver blood flow (well-stirred model, fu assumed unity)
Procedure: as §1, §2, §3, §4, §5

Row | Structure (SMILES) | EC50 [1] [nM] | efflux ratio at 2 h, 3 μM (MDR1) | Papp A→B at 2 h, 3 μM (MDR1) [×10⁻⁶ cm/s] | hepatocyte CLint at 1 μM [2] [µL/min/1e6 cells] | Extraction Ratio (ER) (human hepatocytes)
1 | CC[C@@H](C)S(=O)(=O)N[C@H]1CCCN2C(=O)COc3ccccc3C3CCC(CC3)OC[C@@H]12 (stereo in doubt) [Compound 25] | < 10 | 27 | 0.62 | 35 | 0.84
2 | C[C@H](C(F)(F)F)S(=O)(=O)N[C@H]1CCCN2C(=O)COc3ccccc3C3CCC(CC3)OC[C@@H]12 (stereo in doubt) [Compound 23] | < 10 | 87 | 0.44 | 30 | 0.82
3 | O=C1COc2ccccc2[C@H]2CC[C@H](CC2)OCC2[C@@H](NS(=O)(=O)CF)CCCN12 (stereo in doubt) [Compound 38] | < 10 | 35 | 1.32 | 18 | 0.73
4 | CS(=O)(=O)N[C@H]1CCCN2C(=O)COc3ccccc3[C@H]3CC[C@@H](OCC12)[C@H](O)C3 (stereo in doubt) [Compound 45] | 10 to 1000 | > 5.3 | < 0.14 | < 1.9 | <0.22
5 | Cc1ccnc2c1[C@H]1CC[C@H](CC1)OCC1[C@@H](NS(=O)(=O)C3CCOC3)CCCN1C(=O)CO2 (stereo in doubt) [Compound 89] | < 10 | 49 | 0.56 | 12 | 0.64
6 | C[C@@H](C(F)(F)F)S(=O)(=O)N[C@H]1CCCN2C(=O)COc3ccccc3C3CCC(CC3)OC[C@@H]12 (stereo in doubt) [Compound 24] | < 10 | 43 | 0.65 | 28 | 0.81
7 | CS(=O)(=O)N[C@H]1CCCN2C(=O)[C@@H](CO)Oc3ccccc3[C@H]3CC[C@H](CC3)OCC12 (stereo in doubt) [Compound 60] | < 10 | > 100 | 0.041 | 3.7 | 0.36
8 | Cc1ccc2c(c1C)[C@H]1CC[C@H](CC1)OCC1[C@@H](NS(=O)(=O)C3CC3)CCCN1C(=O)CO2 (stereo in doubt) [Compound 77] | – | 27 | 0.79 | 12 | 0.63
9 | CC(C)(C)S(=O)(=O)N[C@H]1CCCN2CCOc3ccccc3[C@H]3CC[C@H](CC3)OCC12 (stereo in doubt) [Compound 56] | – | 3.3 | 1.7 | 69 | 0.91
10 | O=S(=O)(CC1CC1)N[C@H]1CCCN2CCOc3ccccc3[C@H]3CC[C@H](CC3)OCC12 (stereo in doubt) [Compound 59] | – | 5.4 | 1.67 | 62 | 0.90
11 | O=S(=O)(N[C@H]1CCCN2CCOc3ccccc3[C@H]3CC[C@H](CC3)OCC12)C1CC1 (stereo in doubt) [Compound 51] | – | 1.1 | 7.8 | 42 | 0.86
12 | CCS(=O)(=O)N[C@H]1CCCN2CCOc3ccccc3[C@H]3CC[C@H](CC3)OCC12 (stereo in doubt) [Compound 53] | – | 1.8 | 5.6 | 58 | 0.90
13 | O=S(=O)(N[C@H]1CCCN2CCOc3ncccc3[C@H]3CC[C@H](CC3)OCC12)C1CC1 (stereo in doubt) [Compound 63] | – | 1.4 | 7.5 | 44 | 0.87
14 | CC(C)S(=O)(=O)N[C@H]1CCCN2CCOc3ccccc3[C@H]3CC[C@H](CC3)OCC12 (stereo in doubt) [Compound 52] | – | 2.4 | 3.9 | 59 | 0.90
15 | O=C1COc2ccccc2C2CCC(CC2)OC[C@H]2[C@@H](NS(=O)(=O)CCO)CCCN12 (stereo in doubt) [Compound 19] | – | > 100 | < 0.092 | 6.6 | 0.50
